Assay results reported in article PMC10244465, “Native American ataxia medicines rescue ataxia-linked mutant potassium channel activity via binding to the voltage sensing domain” (Nature Communications, 2023).
Where two headings read alike, the source gives them in different places. One block for each compound: values may come before it.

Tests used:
Format in all cases: cell-based
[1] = target: T1, wild-type human Kv1.1 (Homo sapiens, UniProt Q09470); test: Two-electrode voltage clamp of oocytes expressing wild-type Kv1.1; conditions: for shift of midpoint voltage-dependence of activation (V0.5 act): 100 µM; for effect on Kv1.1 activity: compound 100 µM; for EM (unclamped oocyte membrane potential) / Slope / V0.5 Normalized tail current: in presence of 100 µM compound
T1 construct: expressed in transfected cells; host or cells: Xenopus laevis oocytes injected with cRNA (pTLNx vector)
T1 sequence (Q09470 whole entry): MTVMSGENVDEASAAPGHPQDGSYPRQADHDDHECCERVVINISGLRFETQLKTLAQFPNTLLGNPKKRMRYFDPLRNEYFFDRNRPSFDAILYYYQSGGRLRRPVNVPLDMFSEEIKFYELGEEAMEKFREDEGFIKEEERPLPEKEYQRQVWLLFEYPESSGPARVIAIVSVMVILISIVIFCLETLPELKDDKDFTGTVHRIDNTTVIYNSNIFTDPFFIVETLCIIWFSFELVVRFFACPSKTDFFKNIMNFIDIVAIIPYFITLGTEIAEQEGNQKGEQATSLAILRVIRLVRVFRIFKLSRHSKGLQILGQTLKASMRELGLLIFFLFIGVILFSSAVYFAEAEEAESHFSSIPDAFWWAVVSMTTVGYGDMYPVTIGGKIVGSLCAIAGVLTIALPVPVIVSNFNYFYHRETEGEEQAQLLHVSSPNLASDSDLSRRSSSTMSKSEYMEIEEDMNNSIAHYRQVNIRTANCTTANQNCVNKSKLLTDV
Source text: Wild-type and mutant Kv1 cDNAs were generated (Genscript, Piscataway, NJ) in the pTLNx expression vector. As previously described, we generated cRNA transcripts encoding human Kv1.1 (wild-type and mutant) and Kv1.2, by in vitro transcription using the mMessage mMachine kit (Thermo Fisher Scientific), after vector linearization, from cDNA sub-cloned into plasmids (pTLNx) incorporating Xenopus laevis β-globin 5’ and 3’ UTRs flanking the coding region to enhance translation and cRNA stability. We injected defolliculated stage V and VI Xenopus laevis oocytes (Xenoocyte, Dexter, MI, US) with Kv1 cRNAs (1–5 ng). We incubated the oocytes at 16 °C in ND96 oocyte storage solution containing penicillin and streptomycin, with daily washing, for 2 days prior to two-electrode voltage-clamp (TEVC) recording.
We performed TEVC at room temperature using an OC-725C amplifier (Warner Instruments, Hamden, CT) and pClamp10 software (Molecular Devices, Sunnyvale, CA) 2 days after cRNA injection as described in the section above. For recording, oocytes we placed in a small-volume oocyte bath (Warner) and viewed with a dissection microscope. We sourced chemicals from Sigma. We studied effects of plant extracts and of compounds, solubilized directly in bath solution (in mM): 96 NaCl, 4 KCl, 1 MgCl2, 1 CaCl2, 10 HEPES (pH 7.6). We introduced extracts or compounds into the oocyte recording bath by gravity perfusion at a constant flow of 1 ml per minute for 3 min prior to recording. Pipettes were of 1–2 MΩ resistance when filled with 3 M KCl. We recorded currents in response to voltage pulses between −80 mV and +40 mV at 10 or 20 mV intervals from a holding potential of −80 mV, to yield current-voltage relationships and examine activation kinetics. To calculate the voltage dependence of activation (V0.5), tail currents were recorded at a voltage pulse of −50 mV immediately following prepulse voltages between −80 mV and +40 mV. We analyzed data using Clampfit (Molecular Devices) and Graphpad Prism software (GraphPad, San Diego, CA, USA), stating values as mean ± SEM. We plotted raw or normalized tail currents vs. prepulse voltage and fitted with a single Boltzmann function:1 g=(A1−A2)/1+exp[V1/2−V/Vs]y+A2 where g is the normalized tail conductance, A1 is the initial value at -∞, A2 is the final value at +∞, V1/2 is the half-maximal voltage of activation and Vs the slope factor.

[2] = target: T2, Kv1.1/Kv1.1-L155P channels (Homo sapiens, UniProt Q09470, L155P); test: TEVC of oocytes co-injected with 50/50 wild-type/L155P Kv1.1 cRNA
T2 construct: expressed in transfected cells; host or cells: Xenopus laevis oocytes co-injected with 50/50 wild-type/L155P cRNA
T2 sequence (Q09470 whole entry, stated change not applied): as the sequence (Q09470 whole entry) above
T2 sequence (Q09470 whole entry L155P): as the sequence (Q09470 whole entry) above, with L155P counted along it
Source text: As previously described[24], we generated cRNA transcripts encoding human Kv1.1 (wild-type and mutant) and Kv1.2, by in vitro transcription using the mMessage mMachine kit (Thermo Fisher Scientific), after vector linearization, from cDNA sub-cloned into plasmids (pTLNx) incorporating Xenopus laevis β-globin 5’ and 3’ UTRs flanking the coding region to enhance translation and cRNA stability. We injected defolliculated stage V and VI Xenopus laevis oocytes (Xenoocyte, Dexter, MI, US) with Kv1 cRNAs (1–5 ng). We incubated the oocytes at 16 °C in ND96 oocyte storage solution containing penicillin and streptomycin, with daily washing, for 2 days prior to two-electrode voltage-clamp (TEVC) recording.

[3] = target: T3, Kv1.1/Kv1.1-G311D channels (Homo sapiens, UniProt Q09470, G311D); test: TEVC of oocytes co-injected with 50/50 wild-type/G311D Kv1.1 cRNA; conditions: for effect on channel activity: compound 1 µM
T3 construct: expressed in transfected cells; host or cells: Xenopus laevis oocytes co-injected with 50/50 wild-type/mutant cRNA
T3 sequence (Q09470 whole entry, stated change not applied): as the sequence (Q09470 whole entry) above
T3 sequence (Q09470 whole entry G311D): as the sequence (Q09470 whole entry) above, with G311D counted along it
Procedure: (§1) We next tested effects on channels generated by co-injection of 50/50 wild-type/mutant Kv1.1 cRNA. Strikingly, gallic acid (1 µM) was able to hyperpolarize (by −15.5 ± 0.5 mV; n = 4; P < 0.0001) the V0.5 act of Kv1.1/Kv1.1-E283K channels, restoring voltage dependence typical of wild-type Kv1.1 (Fig. 7a–c), also inducing a −14 ± 0.7 mV hyperpolarization (n = 4; P = 0.0005) in EM of oocytes expressing Kv1.1/Kv1.1-E283K (Fig. 7d). […] Because of this hint at activity improvement in L155P channels we also applied higher concentrations (10 and 100 µM) of gallic acid, which produced a more robust (−12.5 ± 0.6 mV and −14.1 ± 0.6 mV, respectively) hyperpolarization of Kv1.1/Kv1.1-L155P V0.5 act (Fig. 8b, c) and hyperpolarized EM by −14.0 ± 0.6 mV and −15.2 ± 0.7 mV, respectively (Fig. 8d).
(§2) Wild-type and mutant Kv1 cDNAs were generated (Genscript, Piscataway, NJ) in the pTLNx expression vector. As previously described, we generated cRNA transcripts encoding human Kv1.1 (wild-type and mutant) and Kv1.2, by in vitro transcription using the mMessage mMachine kit (Thermo Fisher Scientific), after vector linearization, from cDNA sub-cloned into plasmids (pTLNx) incorporating Xenopus laevis β-globin 5’ and 3’ UTRs flanking the coding region to enhance translation and cRNA stability. […]
(§3) We performed TEVC at room temperature using an OC-725C amplifier (Warner Instruments, Hamden, CT) and pClamp10 software (Molecular Devices, Sunnyvale, CA) 2 days after cRNA injection as described in the section above. […] We recorded currents in response to voltage pulses between −80 mV and +40 mV at 10 or 20 mV intervals from a holding potential of −80 mV, to yield current-voltage relationships and examine activation kinetics. To calculate the voltage dependence of activation (V0.5), tail currents were recorded at a voltage pulse of −50 mV immediately following prepulse voltages between −80 mV and +40 mV. We analyzed data using Clampfit (Molecular Devices) and Graphpad Prism software (GraphPad, San Diego, CA, USA), stating values as mean ± SEM. […]

[4] = target: T4, Kv1.1/Kv1.1-V408A channels (Homo sapiens, UniProt Q09470, V408A); test: TEVC of oocytes co-injected with 50/50 wild-type/V408A Kv1.1 cRNA; conditions: for effect on channel activity: compound 1 µM
T4 construct: expressed in transfected cells; host or cells: Xenopus laevis oocytes co-injected with 50/50 wild-type/mutant cRNA
T4 sequence (Q09470 whole entry, stated change not applied): as the sequence (Q09470 whole entry) above
T4 sequence (Q09470 whole entry V408A): as the sequence (Q09470 whole entry) above, with V408A counted along it
Procedure: as §1, §2, §3

shift of midpoint voltage-dependence of activation (V0.5 act) [1]: −25.6 ± 2.6 mV | effect on Kv1.1 activity [1]: highly efficacious Kv1.1 channel openers | EC50 ([1]; dose response, Fig. 4, read-out: EC50 for ΔV0.5activation): 19 ± 1.5 nM | EM (unclamped oocyte membrane potential) [1]: -54.40 ± 1.23 mV | Slope [1]: 13.67 ± 2.01 mV | V0.5 Normalized tail current [1]: -44.95 ± 2.49 mV | effect on channel activity ([2]; compound 1 µM): minimal | effect on channel activity [3]: minimal | effect on channel activity [4]: minimal
Compound: tannic acid

Compound: O=C(O)c1cc(O)c(O)c(O)c1 [gallic acid]
shift of midpoint voltage-dependence of activation (V0.5 act) [1]: −21.0 ± 2.5 mV | EC50 ([1]; EC50 for hyperpolarization of EM, oocytes expressing wild-type Kv1.1): 18 ± 6 nM | EC50 ([1]; EC50 for peak current augmentation, at −40 mV, Fig. 10): 379 ± 28 nM | EC50 ([1]; EC50 for ΔV0.5activation, dose response, Fig. 4): 54 ± 10 nM | lowest concentration that begins to hyperpolarize the resting membrane potential ([1]; Kv1.1-expressing oocytes): 100 nM | effect on Kv1.1 activity [1]: highly efficacious Kv1.1 channel openers | maximal shift in V0.5activation ([1]; dose response, Fig. 4a): −20 mV | EM (unclamped oocyte membrane potential) [1]: -49.60 ± 0.91 mV | Slope [1]: 12.10 ± 2.32 mV | V0.5 Normalized tail current [1]: -37.17 ± 2.59 mV | hyperpolarization of EM ([2]; 1 µM): –9.1 ± 0.8 mV | shift in the voltage dependence of activation (V0.5 act) ([2]; 1 µM): −6.8 ± 0.6 mV | hyperpolarization of EM ([2]; 10 µM): −14.0 ± 0.6 mV | shift in the voltage dependence of activation (V0.5 act) ([2]; 10 µM): −12.5 ± 0.6 mV | hyperpolarization of EM ([2]; 100 µM): −15.2 ± 0.7 mV | shift in the voltage dependence of activation (V0.5 act) ([2]; 100 µM): −14.1 ± 0.6 mV | EM ([2]; in presence of 1 µM compound): -45.00 ± 0.78 mV | Slope ([2]; in presence of 1 µM compound): 4.84 ± 0.56 mV | V0.5 Normalized tail current ([2]; in presence of 1 µM compound): -30.59 ± 0.60 mV | EM ([2]; in presence of 10 µM compound): -48.89 ± 0.66 mV | Slope ([2]; in presence of 10 µM compound): 4.76 ± 0.51 mV | V0.5 Normalized tail current ([2]; in presence of 10 µM compound): -36.38 ± 0.62 mV | EM ([2]; in presence of 100 µM compound): -50.11 ± 0.69 mV | Slope ([2]; in presence of 100 µM compound): 4.68 ± 0.55 mV | V0.5 Normalized tail current ([2]; in presence of 100 µM compound): -37.93 ± 0.62 mV | effect on channel activity [3]: negligible | EM ([3]; in presence of 1 µM compound): -47.00 ± 2.56 mV | effect on channel activity [4]: negligible | EM ([4]; in presence of 1 µM compound): -46.60 ± 0.60 mV
